Read-outs that look alike come from different tables or passages of the source.
Columns and labels:
WT PncC (NMN deamidase) = system: T1, WT PncC (NMN deamidase); experiment: Fluorescence-based thermal shift binding assay, wild-type PncC; design: species or system E. coli; conditions: 1 mM NMN
T1 construct: made in house; host or cells: E. coli BL21(DE3)
Description: (§1) Protein melting temperature (Tm) was determined by fluorescence-based thermal shift assay using fluoroprobe SYPRO Orange dye (Invitrogen, Waltham, MA, USA). The assay was performed in a RotorGene 3000 real-time PCR (Corbett, Biocompare, San Francisco, CA, USA). The assay mixture contained 50 mM Hepes/NaOH, pH 7.5, 300 mM NaCl, 1 mM TCEP, 1 μM protein, Sypro orange at 10-fold dilution from a 5000-fold stock, and the various ligands at the tested concentrations, in a final volume of 25 μL. The mixtures were pre-heated at 40 °C for 5 s, then heated to 50 °C in 1 s, and finally heated from 50 to 99 °C with a heating-up rate of 0.5 °C every 5 s. The fluorescence intensity was measured with Ex/Em: 470/585 nm. The melting temperature was determined by taking the maximum point of the slope-derivative peak. Kd values were determined by plotting the percentage of unfolded proteins as a function of nucleotide concentration at a fixed temperature, after normalization of the unfolding curves. Fitting of the data was performed using the equations reported in [34]. Three independent experiments were carried out and values were reported as the means ± standard deviation.

K61Q PncC [1] = target: T2, K61Q PncC (Escherichia coli, UniProt P0A6G3, K61Q); assay type: binding, E. coli
T2 construct: made in house; host or cells: E. coli BL21(DE3)
Description: (§2) Experimental data were processed using the OriginPro 8.0 (OriginLab Corporation, Northampton, MA, USA). A non-linear curve analysis (Hill1 plot) was used for plotting the F0/F values in function of the metabolite concentration, to obtain the Kd value.
Percentage of the K61Q protein that would exist in complex with NMN in a cellular setting was calculated based on the Kd value, by using the equation: %=100/1+Kd/[NMN]

S29A PncC [2] = target: T3, S29A PncC (Escherichia coli, UniProt P0A6G3, S29A); experiment: biochemical; assay type: binding, E. coli
T3 construct: made in house; host or cells: E. coli BL21(DE3)

K61Q PncC [3] = target: T2, K61Q PncC; experiment: biochemical; assay type: binding, E. coli
S29A PncC [4] = target: T3, S29A PncC; assay type: binding, E. coli
Text: as §2

R142A PncC = system: T4, R142A PncC; experiment: Fluorescence-based thermal shift binding assay, R142A PncC; design: species or system E. coli
T4 construct: made in house; host or cells: E. coli BL21(DE3)
Description: as §1

[5] = system: glutamine binding protein (GlnBP); conditions: GlnBP 3 µM, 96 µM nucleotide
Description: Steady-state measurements were performed using an ISS_K2 fluorometer (ISS, Urbana-Champaign, IL, USA), equipped with a one-cell temperature-controlled sample holder. […] Excitation and emission slit widths were fixed at 0.5 and 1.0 nm, respectively. […] The nucleotides were added to reach the indicated final concentration (from 0.18 to 96 µM) with an incubation interval of 10 min. Triplicate readings were done for each experimental point. Experiments were repeated three times (for NMN and NaMN) or twice (for all the other metabolites). Controls experiments were performed using the E. coli Glutamine Binding Protein (GlnBP, 3µM), with increasing concentration of NMN or NaMN, at the same conditions.
Percentages of reduction of fluorescence intensities compared to buffer, were calculated as follow: (normalized fluorescence in presence of analyte at a given [µM]/normalized fluorescence in presence of corresponding volume of buffer) × 100.

Y56A PncC = system: T5, Y56A PncC; experiment: Fluorescence-based thermal shift binding assay, Y56A PncC; design: species or system E. coli
T5 construct: made in house; host or cells: E. coli BL21(DE3)
Description: as §1

T2 sequence (P0A6G3 whole entry K61Q): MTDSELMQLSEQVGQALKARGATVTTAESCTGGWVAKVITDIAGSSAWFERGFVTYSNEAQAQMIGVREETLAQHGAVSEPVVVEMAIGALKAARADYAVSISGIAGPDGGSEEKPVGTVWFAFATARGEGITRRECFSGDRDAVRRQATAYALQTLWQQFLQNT
T3 sequence (P0A6G3 whole entry S29A): as the sequence (P0A6G3 whole entry K61Q) above, with S29A, Q61K counted along it

Row | Compound | K61Q PncC fluorescence quenching (%) vs buffer (K61Q PncC [1]; nucleotide 0.185 µM) [%] | K61Q PncC fluorescence quenching (%) vs buffer (K61Q PncC [1]; nucleotide 0.375 µM) [%] | K61Q PncC fluorescence quenching (%) vs buffer (K61Q PncC [1]; nucleotide 0.75 µM) [%] | K61Q PncC fluorescence quenching (%) vs buffer (K61Q PncC [1]; nucleotide 1.5 µM) [%] | K61Q PncC fluorescence quenching (%) vs buffer (K61Q PncC [1]; nucleotide 3 µM) [%] | K61Q PncC fluorescence quenching (%) vs buffer (K61Q PncC [1]; nucleotide 6 µM) [%] | K61Q PncC fluorescence quenching (%) vs buffer (K61Q PncC [1]; nucleotide 12 µM) [%] | K61Q PncC fluorescence quenching (%) vs buffer (K61Q PncC [1]; nucleotide 24 µM) [%] | K61Q PncC fluorescence quenching (%) vs buffer (K61Q PncC [1]; nucleotide 48 µM) [%] | S29A PncC fluorescence quenching (%) vs buffer (S29A PncC [4]; nucleotide 0.185 µM) [%] | S29A PncC fluorescence quenching (%) vs buffer (S29A PncC [4]; nucleotide 0.375 µM) [%] | S29A PncC fluorescence quenching (%) vs buffer (S29A PncC [4]; nucleotide 0.75 µM) [%] | S29A PncC fluorescence quenching (%) vs buffer (S29A PncC [4]; nucleotide 3 µM) [%] | S29A PncC fluorescence quenching (%) vs buffer (S29A PncC [4]; nucleotide 6 µM) [%] | S29A PncC fluorescence quenching (%) vs buffer (S29A PncC [4]; nucleotide 12 µM) [%] | S29A PncC fluorescence quenching (%) vs buffer (S29A PncC [4]; nucleotide 24 µM) [%] | S29A PncC fluorescence quenching (%) vs buffer (S29A PncC [4]; nucleotide 48 µM) [%] | quenching of fluorescence of GlnBP [5] [%] | also measured
1 | NC(=O)c1ccc[n+]([C@@H]2O[C@H](COP(=O)([O-])O)[C@@H](O)[C@H]2O)c1 [NMN, nicotinamide mononucleotide] | 1.09 | 1.84 | 3.19 | 4.87 | 6.26 | 8.11 | 12.12 | 20.07 | 38.03 | 0.48 | 0.58 | 2.58 | 17.42 | 17.55 | 27.06 | 37.52 | 46.79 | 4.3 | Tm (+NMN) (WT PncC (NMN deamidase)): 92.2 °C; ΔTm (WT PncC (NMN deamidase)): 6.1 °C; Hill coefficient (nH) (K61Q PncC [1]; K61Q PncC, Trp fluorescence): 1.3±0.2; Tm (+NMN) (S29A PncC [2]; S29A PncC, 1 mM NMN): 95.5 °C; ΔTm at 1000 µM (S29A PncC [2]; read-out: ΔTm): 10 °C; Tm (+NMN) (K61Q PncC [3]; K61Q PncC, 1 mM NMN): 86.2 °C; ΔTm at 1000 µM (K61Q PncC [3]; read-out: ΔTm): 18.7 °C; Hill coefficient (nH) (S29A PncC [4]; S29A PncC, Trp fluorescence): 0.98± 0.1; Tm (+NMN) (R142A PncC; 1 mM NMN): 52.4 °C; Effect of NMN on Tm (R142A PncC; 1.0 mM NMN): not affected; Tm (+NMN) (Y56A PncC; 1 mM NMN): 83.6 °C; Effect of NMN on Tm (Y56A PncC; 1.0 mM NMN): not affected
2 | O=C(O)c1ccc[n+]([C@@H]2O[C@H](COP(=O)([O-])O)[C@@H](O)[C@H]2O)c1 [NaMN, nicotinic acid mononucleotide] | 0.71 | 1.11 | 2.05 | 2.12 | 2.82 | 2.80 | 4.14 | 4.9 | 7.14 | 1.79 | 2.56 | 6.47 | 30.74 | 30.87 | 40.52 | 47.93 | 52.28 | 4.3 | apparent Kd (Trp fluorescence) (K61Q PncC [1]; K61Q PncC, at 25 °C): not possible to determine Kd; K61Q PncC fluorescence quenching (%) vs buffer (K61Q PncC [1]; nucleotide 96 µM): 10.68%; Kd (thermal shift) (K61Q PncC [3]; K61Q PncC, at 70 °C): not possible to determine Kd; S29A PncC fluorescence quenching (%) vs buffer (S29A PncC [4]; nucleotide 1.5 µM): 20.83%

Reference: paper PMC8231969, “Characterization of Two NMN Deamidase Mutants as Possible Probes for an NMN Biosensor” (International Journal of Molecular Sciences, 2021)
